Laboratory results from US5449661A, “Angiotensin converting enzyme inhibitor and method for preparing same” (The Calpis Food Industry Co., Ltd., priority 1992, dated 1995).
Residues, ends and D or L forms follow the SMILES beside them.

Target: T1, angiotensin converting enzyme (ACE) (Oryctolagus cuniculus, UniProt P12822)
T1 sequence (P12822 34-1310): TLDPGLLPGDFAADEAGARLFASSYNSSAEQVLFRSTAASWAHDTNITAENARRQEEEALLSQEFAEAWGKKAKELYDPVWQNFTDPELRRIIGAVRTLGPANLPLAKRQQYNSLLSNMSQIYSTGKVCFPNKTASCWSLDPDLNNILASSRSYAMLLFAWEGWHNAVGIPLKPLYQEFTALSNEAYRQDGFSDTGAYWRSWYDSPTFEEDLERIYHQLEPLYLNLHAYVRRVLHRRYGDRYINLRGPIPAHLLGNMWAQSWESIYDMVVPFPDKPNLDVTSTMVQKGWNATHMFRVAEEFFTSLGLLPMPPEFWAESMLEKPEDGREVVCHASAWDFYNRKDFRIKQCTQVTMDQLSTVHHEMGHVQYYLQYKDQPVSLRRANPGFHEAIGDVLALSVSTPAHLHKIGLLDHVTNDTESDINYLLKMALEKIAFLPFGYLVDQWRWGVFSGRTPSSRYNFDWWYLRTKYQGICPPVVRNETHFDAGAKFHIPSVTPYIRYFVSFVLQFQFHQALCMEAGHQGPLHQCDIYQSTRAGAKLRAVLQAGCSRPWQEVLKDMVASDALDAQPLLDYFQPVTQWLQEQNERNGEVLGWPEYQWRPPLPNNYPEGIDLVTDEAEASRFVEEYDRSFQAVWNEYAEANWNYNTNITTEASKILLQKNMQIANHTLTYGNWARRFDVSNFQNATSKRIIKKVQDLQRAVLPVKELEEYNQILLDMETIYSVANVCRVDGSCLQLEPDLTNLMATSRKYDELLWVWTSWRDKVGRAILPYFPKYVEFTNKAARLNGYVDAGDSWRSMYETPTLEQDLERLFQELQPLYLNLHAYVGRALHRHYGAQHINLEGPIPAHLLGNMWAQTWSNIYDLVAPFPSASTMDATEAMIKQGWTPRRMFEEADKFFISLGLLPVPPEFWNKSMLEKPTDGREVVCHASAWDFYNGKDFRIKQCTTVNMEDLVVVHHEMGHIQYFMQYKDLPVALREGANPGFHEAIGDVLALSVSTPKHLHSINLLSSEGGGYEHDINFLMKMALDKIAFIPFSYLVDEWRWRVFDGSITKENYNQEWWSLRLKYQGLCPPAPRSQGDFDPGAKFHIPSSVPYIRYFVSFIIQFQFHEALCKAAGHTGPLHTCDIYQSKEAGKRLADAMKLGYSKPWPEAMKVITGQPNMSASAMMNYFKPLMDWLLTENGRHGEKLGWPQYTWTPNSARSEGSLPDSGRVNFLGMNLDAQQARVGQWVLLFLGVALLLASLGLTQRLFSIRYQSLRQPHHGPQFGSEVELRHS
Assay: ACE inhibiting activity (method of Cushman and Cheung, Hip-His-Leu substrate)
Settings: read-out: IC50 (μM), ACE inhibiting activity of synthesized peptides; chemically synthesized peptides; measured in the same way as in Example 1
Procedure: 0.2 ml of hippuryl histidyl leucine (Hip-His-Leu, manufactured by SIGMA CHEMICAL CO.), adjusted to 5 mM with a 0.1M boric acid buffer containing 0.3M NaCl, pH 8.3, and 0.02 ml of an aqueous enzyme solution (ACE, 0.1 u/ml, manufactured by SIGMA CHEMICAL CO.) were added in this order as a substrate to the contents of each test tube, and reaction was carried out at 37° C. for 30 minutes. 0.25 ml of 1N hydrochloric acid was subsequently added to the contents of each test tube. After termination of the reaction, 1.7 ml of ethyl acetate was added to the contents of each tube, and agitation was continued for 20 seconds. After centrifugal separation at 3000 rpm for 10 minutes, and recovery of 1.4 ml of an ethyl acetate layer, the solvent was removed by heating at 120° for 40 minutes. After removing the solvent and adding 1 ml of distilled water, the absorption at 228 nm of the extracted hippuric acid was measured and adopted as the ACE inhibiting activity. The inhibiting ratio was calculated by the following equation:
Inhibiting Percentage=[(A-B)/(A-C)]×100(%)

Row | IC50 [µM] | Compound
1 | 160 | CC(C)C[C@H](N)C(=O)N[C@H](C(=O)N[C@@H](CCC(N)=O)C(=O)N[C@H](C(=O)N1CCC[C@H]1C(=O)N[C@H](C(=O)N[C@H](C(=O)N[C@H](C(=O)N1CCC[C@H]1C(=O)N1CCC[C@H]1C(=O)O)C(C)C)C(C)C)C(C)C)[C@@H](C)O)[C@@H](C)O (H-LTQTPVVVPP-OH)
2 | 12 | CC(C)C[C@H](NC(=O)[C@@H](N)Cc1ccccc1)C(=O)N[C@H](C(=O)N1CCC[C@H]1C(=O)N1CCC[C@H]1C(=O)O)C(C)C [Phe--Leu--Val--Pro--Pro, Phe-Leu-Val-Pro-Pro] (H-FLVPP-OH)
3 | 181 | CC(C)[C@H](NC(=O)[C@@H]1CCCN1)C(=O)N1CCC[C@H]1C(=O)N1CCC[C@H]1C(=O)O [Pro--Val--Pro--Pro, Pro-Val-Pro-Pro] (H-PVPP-OH)
4 | 285 | CC(C)[C@H](N)C(=O)N[C@H](C(=O)N1CCC[C@H]1C(=O)N1CCC[C@H]1C(=O)O)C(C)C [Val--Val--Pro--Pro, Val-Val-Pro-Pro] (H-VVPP-OH)
5 | 873 | CC(C)[C@H](N)C(=O)N[C@H](C(=O)N[C@H](C(=O)N1CCC[C@H]1C(=O)N1CCC[C@H]1C(=O)O)C(C)C)C(C)C [Val--Val--Val--Pro--Pro, Val-Val-Val-Pro-Pro] (H-VVVPP-OH)

More lines, now with the values behind:

Row | Compound | IC50 [µM]
6 | CC(C)[C@H](NC(=O)[C@@H]1CCCN1C(=O)[C@H](C)N)C(=O)N1CCC[C@H]1C(=O)N1CCC[C@H]1C(=O)O [Ala--Pro--Val--Pro--Pro, Ala-Pro-Val-Pro-Pro] (H-APVPP-OH) | 627
7 | CC(C)C[C@H](N)C(=O)N[C@H](C(=O)N1CCC[C@H]1C(=O)N1CCC[C@H]1C(=O)O)C(C)C [Leu--Val--Pro--Pro, Leu-Val-Pro-Pro] (H-LVPP-OH) | 125
8 | CC(C)[C@H](NC(=O)[C@@H]1CCCN1)C(=O)N[C@H](C(=O)N[C@H](C(=O)N1CCC[C@H]1C(=O)N1CCC[C@H]1C(=O)O)C(C)C)C(C)C [Pro--Val--Val--Val--Pro--Pro, Pro-Val-Val-Val-Pro-Pro] (H-PVVVPP-OH) | 117
